US7728146B2, “Enzyme inhibitors” (Probiodrug AG, priority 2006, dated 2010)

Target: DP IV (Homo sapiens, UniProt P27487)
Test: DP IV inhibition IC50, parallel-synthesis compounds tested directly following synthesis (without purification)
Type: biochemical
Set-up: IC50 DP4; other: tested directly following parallel synthesis, without purification; compounds of formula (Ib) from parallel synthesis, tested directly following synthesis
Conditions: DP IV inhibition; compounds of formula (Ib) from parallel synthesis, tested directly following synthesis (without purification); read-out: IC50
Method: Compounds were immediately tested regarding their activity as DP IV inhibitors.
Substances are screened for inhibition of dipeptidyl peptidase (DP IV) by their ability to inhibit the hydrolysis of the DP IV specific substrate Glycyl-Prolyl-4-Nitroanilide (Gly-Pro-pNA). All compounds are diluted in DMSO and IC50 will be determined with 11 serial dilutions (1:2) starting with an final concentration of 100 μM. The final DMSO concentration in the assay is 5% (v/v). The method was automated using a Tecan Genesis Freedom liquid handler and a Genius Pro (Tecan) microplate reader.
DP IV from porcine kidney (pDP IV) or recombinant human DP IV (rhDP IV) is diluted in HEPES buffer to a final activity of approximately 40-50 μU*ml^−1. The DP IV is stored in a cooling rack (4° C.) on the liquid handler.
The assay may becarried out at room temperature using Freedom liquid handler connected with a Genios Pro microplate reader. Each sample is measured in duplicate. Each sample stock solution is prediluted with DMSO in a ratio of 1:5 in a polypropylen 96-well plate. From this predilution 10 serial (1:2) dilutions in DMSO are prepared. 13.5 μl of the 11 DMSO dilutions and DMSO alone are transferred to the measurement microplate (duplicates) and 86.5 μl water, 100 μl HEPES buffer and 50 μl substrate solution are added to each well. The enzymatic reaction is started by addition of 20 μl enzyme solution to each well, and then the microplate is immediately transferred to the microplate reader.
After short mixing (20 s) the release of 4-Nitroanilin (pNA) is monitored at 405 nm for 30 cycles (approx. 18 min).
Post assay calculations are done by the Magellan (Tecan) and Graphit Software. The linear slopes are calculated for each well and averaged for the duplicates. The residue activities are calculated in relation to a sample containing only solvent instead of inhibitor and expressed in %. Residue activities are plotted against the log of inhibitor concentrations and IC50 is calculated by an 4-parameter fitting ranging from 0 to 100%.

IC50 | SMILES
2.8 µM | NCc1c(-c2ccc(Cl)cc2Cl)ncn1Cc1cc(F)cc(C(F)(F)F)c1 [3b, C-[5-(2,4-Dichloro-phenyl)-3-(3-fluoro-5-trifluoromethyl-benzyl)-3H-imidazol-4-yl]-methylamine]
10 µM | NCc1c(-c2ccc(Cl)cc2Cl)ncn1CCNC1CCCCC1 [4b, {2-[5-Aminomethyl-4-(2,4-dichloro-phenyl)-imidazol-1-yl]-ethyl}-cyclohexyl-amine]
19.9 µM | COc1ccc(Cn2cnc(-c3ccc(Cl)cc3Cl)c2CN)cc1OC [5b, C-[5-(2,4-Dichloro-phenyl)-3-(3,4-dimethoxy-benzyl)-3H-imidazol-4-yl]-methylamine]
10.9 µM | CC(C)N(CCn1cnc(-c2ccc(Cl)cc2Cl)c1CN)C(C)C [6b, {2-[5-Aminomethyl-4-(2,4-dichloro-phenyl)-imidazol-1-yl]-ethyl}-diisopropyl-amine]
7.3 µM | NCc1c(-c2ccc(Cl)cc2Cl)ncn1CCc1cccnc1 [9b, C-[5-(2,4-Dichloro-phenyl)-3-(2-pyridin-3-yl-ethyl)-3H-imidazol-4-yl]-methylamine]
12.7 µM | NCc1c(-c2ccc(Cl)cc2Cl)ncn1CCN1CCOCC1 [10b, C-[5-(2,4-Dichloro-phenyl)-3-(2-morpholin-4-yl-ethyl)-3H-imidazol-4-yl]-methylamine]
20.8 µM | Cc1cc(Cn2cnc(-c3ccc(Cl)cc3Cl)c2CN)no1 [13b, C-[5-(2,4-Dichloro-phenyl)-3-(5-methyl-isoxazol-3-ylmethyl)-3H-imidazol-4-yl]-methylamine]
12.7 µM | NCc1c(-c2ccc(Cl)cc2Cl)ncn1CCCCCCO [16b, 6-[5-Aminomethyl-4-(2,4-dichloro-phenyl)-imidazol-1-yl]-hexan-1-ol]
20.8 µM | NCc1c(-c2ccc(Cl)cc2Cl)ncn1CCOCCO [18b, 2-{2-[5-Aminomethyl-4-(2,4-dichloro-phenyl)-imidazol-1-yl]-ethoxy}-ethanol]
45.1 µM | NCc1c(-c2ccc(Cl)cc2Cl)ncn1CCCNC1CCCCC1 [19b, {3-[5-Aminomethyl-4-(2,4-dichloro-phenyl)-imidazol-1-yl]-propyl}-cyclohexyl-amine]
8.2 µM | NCc1c(-c2ccc(Cl)cc2Cl)ncn1CCNc1ccc([N+](=O)[O-])cn1 [20b, {2-[5-Aminomethyl-4-(2,4-dichloro-phenyl)-imidazol-1-yl]-ethyl}-(5-nitro-pyridin-2-yl)-amine]
30.7 µM | CC(N)c1c(-c2ccc(Cl)cc2Cl)ncn1CCCN1CCCC1=O (stereo not shown) [22b, 1-{3-[5-(1-Amino-ethyl)-4-(2,4-dichloro-phenyl)-imidazol-1-yl]-propyl}-pyrrolidin-2-one]
6.4 µM | NCc1c(-c2ccc(Cl)cc2Cl)ncn1Cc1ccc(Br)cc1 [25b, C-[3-(4-Bromo-benzyl)-5-(2,4-dichloro-phenyl)-3H-imidazol-4-yl]-methylamine]
40.6 µM | NCc1c(-c2ccc(Cl)cc2Cl)ncn1CCN1CCCC1 [26b, C-[5-(2,4-Dichloro-phenyl)-3-(2-pyrrolidin-1-yl-ethyl)-3H-imidazol-4-yl]-methylamine]
19.9 µM | Cc1cnc(Cn2cnc(-c3ccc(Cl)cc3Cl)c2CN)cn1 [27b, C-[5-(2,4-Dichloro-phenyl)-3-(5-methyl-pyrazin-2-ylmethyl)-3H-imidazol-4-yl]-methylamine]
22.6 µM | NCc1c(-c2ccc(Cl)cc2Cl)ncn1CCCN1CCCC1=O [29b, 1-{3-[5-Aminomethyl-4-(2,4-dichloro-phenyl)-imidazol-1-yl]-propyl}-pyrrolidin-2-one]
17.2 µM | NCCCc1c(-c2ccc(Cl)cc2Cl)ncn1Cc1cc(Br)ccc1F [30b, 3-[3-(5-Bromo-2-fluoro-benzyl)-5-(2,4-dichloro-phenyl)-3H-imidazol-4-yl]-propylamine]
45.1 µM | NCc1c(-c2ccc(Cl)cc2Cl)ncn1CC(c1ccccc1)c1ccccc1 [31b, C-[5-(2,4-Dichloro-phenyl)-3-(2,2-diphenyl-ethyl)-3H-imidazol-4-yl]-methylamine]
38.8 µM | CC(N)c1c(-c2ccc(Cl)cc2Cl)ncn1CCCCCCO (stereo not shown) [34b, 6-[5-(1-Amino-ethyl)-4-(2,4-dichloro-phenyl)-imidazol-1-yl]-hexan-1-ol]
11.8 µM | COc1ccc(Cn2cnc(-c3ccc(Cl)cc3Cl)c2CN)cc1 [35b, C-[5-(2,4-Dichloro-phenyl)-3-(4-methoxy-benzyl)-3H-imidazol-4-yl]-methylamine]

IC50 | SMILES
25.3 µM | CC(N)c1c(-c2ccc(Cl)cc2Cl)ncn1Cc1cc(F)ccc1F (stereo not shown) [36b, 1-[5-(2,4-Dichloro-phenyl)-3-(2,5-difluoro-benzyl)-3H-imidazol-4-yl]-ethylamine]
48.7 µM | NCCc1c(-c2ccc(Cl)cc2Cl)ncn1CCc1cccc(Cl)c1 [37b, 2-[3-[2-(3-Chloro-phenyl)-ethyl]-5-(2,4-dichloro-phenyl)-3H-imidazol-4-yl]-ethylamine]
10.9 µM | NCc1c(-c2ccc(Cl)cc2Cl)ncn1Cc1c(F)cccc1F [40b, C-[5-(2,4-Dichloro-phenyl)-3-(2,6-difluoro-benzyl)-3H-imidazol-4-yl]-methylamine]
32.5 µM | NCc1c(-c2ccc(Cl)cc2Cl)ncn1CCNc1ccccc1 [41b, {2-[5-Aminomethyl-4-(2,4-dichloro-phenyl)-imidazol-1-yl]-ethyl}-phenyl-amine]
7.3 µM | NCc1c(-c2ccc(Cl)cc2Cl)ncn1CCCCc1ccccc1 [42b, C-[5-(2,4-Dichloro-phenyl)-3-(4-phenyl-butyl)-3H-imidazol-4-yl]-methylamine]
27.1 µM | COc1ccc(Cn2cnc(-c3ccc(Cl)cc3Cl)c2C(C)N)cc1 (stereo not shown) [43b, 1-[5-(2,4-Dichloro-phenyl)-3-(4-methoxy-benzyl)-3H-imidazol-4-yl]-ethylamine]
40.6 µM | CC(C)CCn1cnc(-c2ccc(Cl)cc2Cl)c1C(C)N (stereo not shown) [44b, 1-[5-(2,4-Dichloro-phenyl)-3-(3-methyl-butyl)-3H-imidazol-4-yl]-ethylamine]
27.1 µM | COc1ccc(CCn2cnc(-c3ccc(Cl)cc3Cl)c2CN)cc1 [45b, C-{5-(2,4-Dichloro-phenyl)-3-[2-(4-methoxy-phenyl)-ethyl]-3H-imidazol-4-yl}-methylamine]
2.8 µM | NCc1c(-c2ccc(Cl)cc2Cl)ncn1Cc1cccc(Cl)c1Cl [46b, C-[3-(2,3-Dichloro-benzyl)-5-(2,4-dichloro-phenyl)-3H-imidazol-4-yl]-methylamine]
10.9 µM | NCc1c(-c2ccc(Cl)cc2Cl)ncn1CCCO [47b, 3-[5-Aminomethyl-4-(2,4-dichloro-phenyl)-imidazol-1-yl]-propan-1-ol]
9.1 µM | NCc1c(-c2ccc(Cl)cc2Cl)ncn1CCc1ccc(Br)cc1 [49b, C-[3-[2-(4-Bromo-phenyl)-ethyl]-5-(2,4-dichloro-phenyl)-3H-imidazol-4-yl]-methylamine]
15.4 µM | NCc1c(-c2ccc(Cl)cc2Cl)ncn1Cc1cccc(C(F)(F)F)c1F [50b, C-[5-(2,4-Dichloro-phenyl)-3-(2-fluoro-3-trifluoromethyl-benzyl)-3H-imidazol-4-yl]-methylamine]
37.9 µM | CC(C)CCCCCCn1cnc(-c2ccc(Cl)cc2Cl)c1C(C)N (stereo not shown) [51b, 1-[5-(2,4-Dichloro-phenyl)-3-(7-methyl-octyl)-3H-imidazol-4-yl]-ethylamine]
5.5 µM | NCc1c(-c2ccc(Cl)cc2Cl)ncn1CCc1cccc(Cl)c1 [52b, C-[3-[2-(3-Chloro-phenyl)-ethyl]-5-(2,4-dichloro-phenyl)-3H-imidazol-4-yl]-methylamine]
18.1 µM | NCc1c(-c2ccc(Cl)cc2Cl)ncn1CCC(c1ccccc1)c1ccccc1 [53b, C-[5-(2,4-Dichloro-phenyl)-3-(3,3-diphenyl-propyl)-3H-imidazol-4-yl]-methylamine]
3.7 µM | NCc1c(-c2ccc(Cl)cc2Cl)ncn1CCc1ccc(F)cc1 [55b, C-{5-(2,4-Dichloro-phenyl)-3-[2-(4-fluoro-phenyl)-ethyl]-3H-imidazol-4-yl}-methylamine]
19.9 µM | NCc1c(-c2ccc(Cl)cc2Cl)ncn1CCO [56b, 2-[5-Aminomethyl-4-(2,4-dichloro-phenyl)-imidazol-1-yl]-ethanol]
9.1 µM | NCc1c(-c2ccc(Cl)cc2Cl)ncn1CCc1ccccc1 [57b, C-[5-(2,4-Dichloro-phenyl)-3-phenethyl-3H-imidazol-4-yl]-methylamine]
42.4 µM | NCc1c(-c2ccc(Cl)cc2Cl)ncn1CCN1CCCCC1 [58b, C-[5-(2,4-Dichloro-phenyl)-3-(2-piperidin-1-yl-ethyl)-3H-imidazol-4-yl]-methylamine]
20.8 µM | COCCn1cnc(-c2ccc(Cl)cc2Cl)c1CN [60b, C-[5-(2,4-Dichloro-phenyl)-3-(2-methoxy-ethyl)-3H-imidazol-4-yl]-methylamine]
